In US4762840A, “Pyrimido[2,1-b]benzothiazoles having antiallergic activity” (Roussel Uclaf, priority 1984, dated 1988) one finds IC50 data, which are given here for 39 compounds.

The structures appear in SMILES notation.

The assay concerns lungs. The assay is described as follows: Antigen-induced elevation of lung perfusion pressure (isolated perfused sensitized lung, ovalbumen). As to conditions: Cavia porcellus; perfused lungs of ovalbumen-sensitized guinea pigs; compound in krebs fluid 30 minutes prior to second antigen dose (15 μg ovalbumen); at least four lungs per concentration; read-out: IC50 (inhibition of antigen induced broncho-constriction). More on the design: species or system guinea pig (Dunkin Hartley). How it is done:
Antigen-induced elevation of lung perfusion pressure
Male Dunkin Hartley guinea pigs (Porcellus) weighing between 450-700 g were used (four per test concentration) and were housed in cages. The animals were sensitized by two weekly exposures to 1% W/V aerosol ovalbumen. The animals were anaesthetized with 2.5 mg/kg diazepam i.p. and 1 ml/kg Hyponorm i.m. Following anaethesia, the animals were exsanguinated by severing both carotid arteries and the chest was opened and the lungs removed, split into two at the carina and both cannulated via the main lobar bronchus and connected to a perfusion system. The lungs were perfused with aerated krebs fluid (95% O2 :5% CO2) at 37° C. and 5 μg in 0.1 ml Ovalbumen was injected through an injection port proximal to each lung. Elevation of perfusion pressure by the antigen was recorded and sixty minutes later, 15 μg of ovalbumen were administered. The test compounds were added to the krebs fluid reservoir thirty minutes prior to the second antigen dose. For each weekly batch of animals used, control measurements were made without treatment (n=10 ). The second antigen response was expressed as a percentage of the first. For each test, at least four lungs from four different animals were used per concentration. The percentage inhibition of antigen induced broncho-constriction was calculated.
Regarding `CC(C(=O)OC(C)(C)C)c1ccc2c(c1)sc1nc(=O)cc(-c3ccccc3)n12` (stereo not drawn) [Example 39, t-Butyl α-methyl-4-phenyl-2-oxo-2H-pyrimido[2,1-b]benzothiazole-8-acetate], the IC50 amounted to 0.1 µM.
Take `CCOC(=O)C(CC)c1ccc2c(c1)sc1nc(=O)cc(-c3ccccc3)n12` (stereo not drawn) [Example 29, Ethyl α-ethyl-4-phenyl-2-oxo-2H-pyrimido[2,1-b]benzothiazole-8-acetate]: the IC50 came to 0.1 µM.
With `CCOC(=O)C(CC)(CC)c1ccc2c(c1)sc1nc(=O)cc(-c3ccccc3)n12` [Example 40, Ethyl α,α-diethyl-4-phenyl-2-oxo-2H-pyrimido[2,1-b]benzothiazole-8-acetate], the IC50 was in the range of 10 to 100 µM.
Regarding `CCOC(=O)C(C)c1ccc2c(c1)sc1nc(=O)cc(-c3ccccc3)n12` (stereo not drawn) [Example 20, Ethyl α-methyl-2-oxo-4-phenyl-2H-pyrimido[2,1-b]benzothiazole-8-acetate], the IC50 was 0.1 µM.
Consider `COC(=O)Cc1ccc2c(c1)sc1nc(=O)cc(-c3ccccc3)n12` [Example 4, Methyl 2-oxo-4-phenyl-2H-pyrimido[2,1-b]benzothiazole-8-acetate], for which the IC50 stood at 10 µM.
For `CCCC(C(=O)OCC)c1ccc2c(c1)sc1nc(=O)cc(-c3ccccc3)n12` (stereo not drawn) [Example 32, Ethyl α-propyl-4-phenyl-2-oxo-2H-pyrimido[2,1-b]benzothiazole-8-acetate], the IC50 came to 1 µM.
Then `CCN(CC)C(=O)Cc1ccc2c(c1)sc1nc(=O)cc(-c3ccccc3)n12` [Example 47, N,N-diethyl-2-oxo-4-phenyl-2H-pyrimido-[2,1-b]benzothiazole-8-acetamide], with 10 µM; and `CCOC(=O)C(C)c1ccc2c(c1)sc1nc(=O)cc(-c3ccc(Cl)cc3)n12` (stereo not drawn) [Example 22, Ethyl α-methyl 4-(4-chlorophenyl)-2-oxo-2H-pyrimido[2,1-b]benzothiazole-8-acetate], with 0.1 to 1 µM; and `CCCC(C)(C(=O)OCC)c1ccc2c(c1)sc1nc(=O)cc(-c3ccccc3)n12` (stereo not drawn) [Example 38, Ethyl α-methyl-α-propyl-4-phenyl-2-oxo-2H-pyrimido[2,1-b]benzothiazole-8-acetate], with 1 µM.
Take `CCOC(=O)Cc1ccc2c(c1)sc1nc(=O)cc(-c3ccccc3)n12` [Example 3, Ethyl 2-oxo-4-phenyl-2H-pyrimido[2,1-b]benzothiazole-8-acetate]: the IC50 was determined as 1 µM.
Take `CCOC(=O)Cc1ccc2c(c1)sc1nc(=O)cc(C3CCCCC3)n12` [Example 30, Ethyl 4-cyclohexyl-2-oxo-2H-pyrimido[2,1-b]benzothiazole-8-acetate]: the IC50 was in the range of 1 to 10 µM.
`CCCCOC(=O)Cc1ccc2c(c1)sc1nc(=O)cc(-c3ccccc3)n12` [Example 7, n-Butyl 2-oxo-4-phenyl-2H-pyrimido[2,1-b]benzothiazole-8-acetate]: the IC50 was greater than 10 µM.
For the compound `O=C(Cc1ccc2c(c1)sc1nc(=O)cc(-c3ccccc3)n12)N1CCCCC1` [Example 48, 1-(N-piperidino)-2-(2-oxo-4-phenyl-2H-pyrimido[2,1-b]benzothiazole-8-yl)-ethanone], the IC50 lay within 10 to 100 µM.
Turning to `CCOC(=O)Cc1ccc2c(c1)sc1nc(=O)cc(-c3ccc(C)cc3)n12` [Example 13, Ethyl 4-(4-methylphenyl)-2-oxo-2H-pyrimido[2,1-b]benzothiazole-8-acetate], the concentration for half-maximal inhibition (IC50) is less than 1 µM.
Turning to `CCNC(=O)Cc1ccc2c(c1)sc1nc(=O)cc(-c3ccccc3)n12` [Example 45, N-ethyl-2-oxo-4-phenyl-2H-pyrimido[2,1-b]benzothiazole-8-acetamide], the IC50 fell in the range of 10 to 100 µM.
On to `CCCOC(=O)Cc1ccc2c(c1)sc1nc(=O)cc(-c3ccccc3)n12` [Example 5, n-Propyl 2-oxo-4-phenyl-2H-pyrimido[2,1-b]benzothiazole-8-acetate], for which the IC50 was less than 10 µM.
Take `CC(C)OC(=O)Cc1ccc2c(c1)sc1nc(=O)cc(-c3ccccc3)n12` [Example 6, Isopropyl 2-oxo-4-phenyl-2H-pyrimido[2,1-b]benzothiazole-8-acetate]: the IC50 lay within 1 to 10 µM.
As for `CCOC(=O)C(C)(CC)c1ccc2c(c1)sc1nc(=O)cc(-c3ccccc3)n12` (stereo not drawn) [Example 37, Ethyl α-ethyl-α-methyl-4-phenyl-2-oxo-2H-pyrimido[2,1-b]benzothiazole-8-acetate], the IC50 amounted to 1 µM.
Regarding `CCOC(=O)C(C)c1ccc2c(c1)sc1nc(=O)cc(C(C)C)n12` (stereo not drawn) [Example 28, Ethyl α-methyl-4-isopropyl-2-oxo-2H-pyrimido[2,1-b]benzothiazole-8-acetate], the IC50 lay in the range of 10 to 100 µM.
On to `CCOC(=O)C(C)(C)c1ccc2c(c1)sc1nc(=O)cc(-c3ccccc3)n12` [Example 36, Ethyl α,α-dimethyl-4-phenyl-2-oxo-2H-pyrimido[2,1-b]benzothiazole-8-acetate], for which the IC50 is 1 to 10 µM.
Regarding `CCOC(=O)Cc1ccc2c(c1)sc1nc(=O)cc(C)n12` [Example 15, Ethyl 4-methyl-2-oxo-2H-pyrimido[2,1-b]benzothiazole-8-acetate], the IC50 was 10 to 100 µM.
Turning to `CCCCC(C(=O)OCC)c1ccc2c(c1)sc1nc(=O)cc(-c3ccccc3)n12` (stereo not drawn) [Example 34, Ethyl α-butyl-4-phenyl-2-oxo-2H-pyrimido[2,1-b]benzothiazole-8-acetate], the half-inhibitory concentration (IC50) was 1 to 10 µM.
As to `CN(C)C(=O)Cc1ccc2c(c1)sc1nc(=O)cc(-c3ccccc3)n12` [Example 44, N,N-dimethyl-2-oxo-4-phenyl-2H-pyrimido[2,1-b]benzothiazole-8-acetamide], the IC50 was 10 to 100 µM.
Turning to `CC(C)OC(=O)C(C)c1ccc2c(c1)sc1nc(=O)cc(-c3ccccc3)n12` (stereo not drawn) [Example 35, Isopropyl α-methyl-4-phenyl-2-oxo-2H-pyrimido[2,1-b]benzothiazole-8-acetate], the IC50 was 0.1 to 1 µM.
Regarding `CCOC(=O)Cc1ccc2c(c1)sc1nc(=O)cc(C(C)C)n12` [Example 25, Ethyl 4-isopropyl-2-oxo-2H-pyrimido[2,1-b]benzothiazole-8-acetate], the IC50 was 10 to 100 µM.
For `CCCC(CC)(C(=O)OCC)c1ccc2c(c1)sc1nc(=O)cc(-c3ccccc3)n12` (stereo not drawn) [Example 41, Ethyl α-ethyl-α-propyl-4-phenyl-2-oxo-2H-pyrimido[2,1-b]benzothiazole-8-acetate], the IC50 lay in the range of 10 to 100 µM.
On to `CCOC(=O)Cc1ccc2c(c1)sc1nc(=O)cc(-c3cccc(Cl)c3)n12` [Example 14, Ethyl 4-(3-chlorophenyl)-2-oxo-2H-pyrimido[2,1-b]benzothiazole-8-acetate], for which the IC50 is no more than 1 µM.
Under `CCCCc1cc(=O)nc2sc3cc(CC(=O)OCC)ccc3n12` [Example 18, Ethyl 4-n-butyl-2-oxo-2H-pyrimido[2,1-b]benzothiazole-8-acetate] stands 10 µM; under `CCOC(=O)C(C)c1ccc2c(c1)sc1nc(=O)cc(C3CCCCC3)n12` (stereo not drawn) [Example 31, Ethyl α-methyl-4-cyclohexyl-2-oxo-2H-pyrimido[2,1-b]benzothiazole-8-acetate], less than 10 µM.
Consider `CCOC(=O)C(C)c1ccc2c(c1)sc1nc(=O)cc(-c3cccc(Cl)c3)n12` (stereo not drawn) [Example 23, Ethyl α-methyl 4-(3-chlorophenyl) 2-oxo-2H-pyrimido[2,1-b]benzothiazole-8-acetate], for which the IC50 is no more than 1 µM.
Then `CCCCC(C)(C(=O)OCC)c1ccc2c(c1)sc1nc(=O)cc(-c3ccccc3)n12` (stereo not drawn) [Example 42, Ethyl α-butyl-α-methyl-4-phenyl-2-oxo-2H-pyrimido[2,1-b]benzothiazole-8-acetate], with 10 to 100 µM.
As to `CCOC(=O)Cc1ccc2c(c1)sc1nc(=O)cc(-c3ccc(OC)cc3)n12` [Example 9, Ethyl 4-(4-methoxyphenyl)-2-oxo-2H-pyrimido[2,1-b]benzothiazole-8-acetate], the IC50 was 1 µM.
For `CCOC(=O)Cc1ccc2c(c1)sc1nc(=O)cc(-c3ccccc3Cl)n12` [Example 12, Ethyl 4-(2-chlorophenyl)-2-oxo-2H-pyrimido[2,1-b]benzothiazole-8-acetate], the IC50 fell in the range of 0.1 to 1 µM.
For `CC(C(=O)OCC(C)(C)C)c1ccc2c(c1)sc1nc(=O)cc(-c3ccccc3)n12` (stereo not drawn) [Example 43, 2,2-Dimethylpropyl α-methyl-4-phenyl-2-oxo-2H-pyrimido[2,1-b]benzothiazole-8-acetate], the IC50 is 0.1 µM.
On to `CC(C(=O)OC1(C)CCCCC1)c1ccc2c(c1)sc1nc(=O)cc(-c3ccccc3)n12` (stereo not drawn) [Example 49, 1-Methylcyclohexyl α-methyl-2-oxo-4-phenyl-2H-pyrimido[2,1-b]benzothiazole-8-acetate], for which the IC50 lay in the range of 1 to 10 µM.
`CCCc1cc(=O)nc2sc3cc(CC(=O)OCC)ccc3n12` [Example 17, Ethyl 2-oxo-4-n-propyl-2H-pyrimido[2,1-b]benzothiazole-8-acetate]: the IC50 was 1 to 10 µM.
Then `CCOC(=O)C(C)c1ccc2c(c1)sc1nc(=O)ccn12` (stereo not drawn) [Example 2, Ethyl 2-oxo-2H-pyrimido[2,1-b]benzothiazole-8-α-methylacetate], with greater than 100 µM; and `CCOC(=O)Cc1ccc2c(c1)sc1nc(=O)cc(-c3ccc([N+](=O)[O-])cc3)n12` [Example 10, Ethyl 4-(4-nitrophenyl)-2-oxo-2H-pyrimido[2,1-b]benzothiazole-8-acetate], with 10 to 100 µM; and `CCOC(=O)Cc1ccc2c(c1)sc1nc(=O)cc(CC)n12` [Example 16, Ethyl 4-ethyl-2-oxo-2H-pyrimido[2,1-b]benzothiazole-8-acetate], with 100 µM.

As a reminder, the IC50 is the concentration that gives 50% inhibition.
